Patent US12491249B2, “Methods for manufacturing phthalocyanine dye conjugates and stable conjugates” (Rakuten Medical, Inc., priority 2015, dated 2025)
Read-outs that look alike come from different tables or passages of the source.

Assays:
[1] = cited from earlier work
A431 cells = assay: EGF-IR700 light-dependent killing; format: cell-based; conditions: for light-dependent killing after conjugate pre-exposure: 1 μg/mL
Experimental: To assess if EGF-IR700 cell killing was assessed in A431 cells. A431 cells were seeded at 5000 cells per well in 96 well white clear bottom dishes one day prior to the experiment. The following day, the A431 cells were washed three times with EMEM supplemented with 1% Penicillin/Streptomycin (serum free media). The A431 cells were then washed one time with serum free media, then incubated with serum free media containing 1 sg/mL of EGF-IRDye 700DX for one hour at 4° C. or serum free media only. As a control to assess the specificity of the activity, in one condition A431 cells were pre-incubated with 100 sg/mL unconjugated cetuximab diluted in serum free media for one hour at 4° C. prior to incubation with 1 sg/mL of EGF-IRDye 700DX. The cells were then washed one time with serum free media.
To induce IR700-dependent killing, the cells were then illuminated with a 690 nm laser with 32 J/cm^2 of light or protected from light (“no light”). Cell death was evaluated as described in Example 9 using CellTox Green. The normalized percentage of dead cells was calculated by subtracting all wells by the percentage of dead cells from the no light serum free media only control, dividing by EGF-IRDye 700DX at 32 J/cm^2 minus the no light serum-free media only control, and multiplied 100.
The effect of EGF-IRDye 700DX pre-exposure to white light versus green light on photo-activated cell killing was also evaluated in A431 cells. EGF-IRDye 700DX was pre-exposed to different types of light and the effect of light treatment on photo-activated killing activity was evaluated. Five microliters of EGF-IRDye 700DX conjugate (DAR 2) was added per clear HPLC vial at a EGF-IRDye 700DX concentration of 1.14 mg/mL. The following conditions were tested: (1) the antibody-IRDye 700DX conjugate stored at 4° C. protected from light (“4° C.”, used as the control); (2). antibody-IRDye 700DX conjugate placed in a clear glass HPLC tube under a Halogen lamp at 2500 lux for 24 hrs (“white light”); (3) antibody-IRDye 700DX conjugate placed in a clear glass HPLC tube wrapped in aluminum foil to protect from light exposure under Halogen lamp at 2500 lux for 24 hrs (“no light”, used as a control for thermal heating effects on the formation of aggregates); and (4) antibody-IRDye 700DX conjugate placed in a clear glass HPLC tube and exposed to green LED lamp at 2500 lux for 24 hrs (“green light”).
To assess cell killing activity, A431 cells were washed two times with serum free media, and incubated in serum free media alone for one hour at 4° C. The cells were then washed one time with serum free media and incubated with serum free media alone or serum free media containing 1 μg/mL of EGF-IRDye 700DX (“no light”), serum free media containing 1 μg/mL of EGF-IRDye 700DX pre-exposed to white light (“2500 Lux White light”), or serum free media containing 1 μg/mL EGF-IRDye 700DX pre-exposed to green light for one hour at 4° C. (“2500 Lux Green light”). The cells were then washed one time with serum free media.
To induce cell killing, the cells were either protected from light (light dose 0 J/cm^2) or were illuminated with a 690 nm laser with different light dosimetries (8 J/cm^2, 32 J/cm^2 or 64 J/cm).

C=Cc1c(C)c2cc3nc(c(CC(=O)N[C@@H](CC(=O)[O-])C(=O)[O-])c4[nH]c(cc5nc(cc1[nH]2)C(C)=C5CC)c(C)c4C(=O)[O-])[C@@H](CCC(=O)[O-])[C@@H]3C.[Na+].[Na+].[Na+].[Na+] [NPe6/Laserphyrin, mono-L-aspartylchlorin e6]
extinction coefficient ([1]; at 654 nm): 40000 M⁻¹ cm⁻¹

EGF-IRDye 700DX: Human recombinant epidermal growth factor (EGF) conjugated to IRDye 700DX
cell killing (A431 cells; 1 sg/mL, 690 nm 32 J/cm^2 or no light): light-dependent killing
cell killing after receptor blocking (A431 cells; cells pre-exposed to 100 sg/mL unconjugated cetuximab, 1 sg/mL conjugate): blocked light-dependent cell killing
light-dependent killing after conjugate pre-exposure (A431 cells; green light, green LED lamp 2500 lux 24 hours): comparable to that of the “no light” EGF-IRDye 700DX
light-dependent killing after conjugate pre-exposure (A431 cells; protected from light, thermal heating under halogen lamp 2500 lux 24 hours): exhibited light-dependent killing
light-dependent killing after conjugate pre-exposure (A431 cells; white light, halogen lamp 2500 lux 24 hours): no longer exhibited light-dependent killing activity

Photofrin
extinction coefficient ([1]; at 630 nm): 1200 M⁻¹ cm⁻¹
